The numbers were not newly measured in patent US20230381275A1, “MUSCULAR FUNCTION IMPROVING AGENT FOR SKELETAL MUSCLE OF WHICH FUNCTION IS DEGRADED DUE TO AGING” (OSAKA UNIVERSITY, priority 2020, published 2023), which cites them from elsewhere.

Tested on in the first series: not given
To be noted: relative to SVVYGLR (SEQ ID NO.: 1); earlier work of the inventors; cited from earlier work.
Consider VVYGLR [SEQ ID NO.: 5], for which the angiogenic effect entry is listed as “maintained”.
For the substance SVVWGLR [SEQ ID No.: 3], the angiogenic effect result is reported as “maintained”.
Consider SVVFGLR [SEQ ID No.: 2], for which the angiogenic effect entry was “maintained”.
Consider SVVYGLRG [SEQ ID NO.: 10], for which the angiogenic effect result is “maintained”.
In the case of SVVYGL [SEQ ID NO.: 4], the angiogenic effect entry was “maintained”.

The test system of the next series is fibroblasts. Conditions: see Patent Document 1; cited from earlier work.
With “fragment of osteopontin having SVVYGLR (SEQ ID No.: 1) at the C-terminus: thrombin-cleaved fragment of human osteopontin, or a portion thereof, having the sequence SVVYGLR at the C-terminus”, the “type III collagen production-promoting effect / type III collagen secretion” value is given as “effect equivalent to type III collagen production-promoting effect of SVVYGLR”.
